Test system: H5 (VN/04), H11 and H12 subtype HAs
Design: species or system mice
Details: mouse, in vivo

Row | Compound | IgG subtype profile (IgG2a/IgG1) to H5 subtype HA | IgG titers reacting to H11 subtype versus unadjuvanted control | IgG titers reacting to H12 subtype versus unadjuvanted control | serum IgG reactivity to the H5 subtype HA (VN/04) versus no adjuvant
1 | Cn1c2ccccc2c2nc(SCC(=O)NC3CCCCC3)n(-c3ccccc3)c(=O)c21 [Compound 1Z105] | induced primarily IgG1 | – | – | –
2 | CCCCCCCCC=CCCCCCCCC(=O)OCC(COP(=O)(O)OCCNC(=O)c1ccc(Cn2c(=O)[nH]c3c(N)nc(OCCOC)nc32)cc1)OC(=O)CCCCCCCC=CCCCCCCCC (centres unmarked) [Compound 1V270] | inducing IgG2a | significantly better than the unadjuvanted control | significantly better than the unadjuvanted control | significantly higher reactivity

From patent publication US20150366962A1 (priority 2014, published 2015)
